In PubChem BioAssay AID1259407 (Chemical Carcinogenesis Research Information System (CCRIS), 2018):
The source made the active and inactive calls. How the calls were made is not given here.

System: CCRIS mutagenicity, Ames/micronucleus/aberration tests
Test: CCRIS mutagenicity studies

Measured: mutagenic call

CN(N=O)C(N)=O
active: End Point: IN VITRO CHROMOSOMAL ABERRATIONS, Test System: CHINESE HAMSTER V79-E CELLS, Metabolic Activation: NONE active; positive | End Point: IN VITRO CHROMOSOMAL ABERRATIONS, Test System: V79 CELLS (V79-C10), Metabolic Activation: NONE active; positive | End Point: IN VITRO MICRONUCLEUS, Test System: CHINESE HAMSTER V79 CELLS, Metabolic Activation: NONE active; positive at the cytotoxic dose of 0.8 mm | End Point: IN VITRO MICRONUCLEUS, Test System: MOUSE LYMPHOMA L5178Y CELLS, Metabolic Activation: NONE active; positive | End Point: Mutagenicity, Test System: Spleen: t-lymphocytes/hprt mutants, Species: Rat, Strain/Sex: Wistar/male, Route: Intraperitoneal active; positive; mutation induction dramatically lower following subchronic treatment; | Test System: AMES SALMONELLA TYPHIMURIUM, Strain/Indicator: G46, Metabolic Activation: NONE, Method: STANDARD PLATE active; positive | Test System: AMES SALMONELLA TYPHIMURIUM, Strain/Indicator: TA100, Metabolic Activation: NONE, Method: LIQUID INCUBATION active; positive | Test System: AMES SALMONELLA TYPHIMURIUM, Strain/Indicator: TA100, Metabolic Activation: NONE, Method: STANDARD PLATE active; positive | Test System: AMES SALMONELLA TYPHIMURIUM, Strain/Indicator: TA100, Metabolic Activation: RAT, LIVER, S-9, AROCLOR 1254, Method: PREINCUBATION active; positive | Test System: AMES SALMONELLA TYPHIMURIUM, Strain/Indicator: TA100, Metabolic Activation: RAT, LIVER, S-9, KC500 OR PHENOBARBITAL, Method: LIQUID SUSPENSION active; positive | Test System: AMES SALMONELLA TYPHIMURIUM, Strain/Indicator: TA100, Metabolic Activation: RAT, LIVER, S-9, PHENOBARBITAL, Method: STANDARD PLATE active; positive | Test System: AMES SALMONELLA TYPHIMURIUM, Strain/Indicator: TA102, Metabolic Activation: RAT, LIVER, S-9, AROCLOR 1254, Method: PREINCUBATION active; positive | Test System: AMES SALMONELLA TYPHIMURIUM, Strain/Indicator: TA104, Metabolic Activation: NONE, Method: PREINCUBATION active; positive | Test System: AMES SALMONELLA TYPHIMURIUM, Strain/Indicator: TA104, Metabolic Activation: RAT, LIVER, S-9, AROCLOR 1254, Method: PREINCUBATION active; positive | Test System: AMES SALMONELLA TYPHIMURIUM, Strain/Indicator: TA1530, Metabolic Activation: NONE, Method: PREINCUBATION active; positive | Test System: AMES SALMONELLA TYPHIMURIUM, Strain/Indicator: TA1530, Metabolic Activation: NONE, Method: STANDARD PLATE active; positive | Test System: AMES SALMONELLA TYPHIMURIUM, Strain/Indicator: TA1535, Metabolic Activation: NONE, Method: LIQUID INCUBATION active; positive | Test System: AMES SALMONELLA TYPHIMURIUM, Strain/Indicator: TA1535, Metabolic Activation: NONE, Method: PREINCUBATION active; positive | Test System: AMES SALMONELLA TYPHIMURIUM, Strain/Indicator: TA1535, Metabolic Activation: NONE, Method: STANDARD PLATE active; positive | Test System: AMES SALMONELLA TYPHIMURIUM, Strain/Indicator: TA1535, Metabolic Activation: RAT, LIVER, S-9, PCB OR PHENOBARBITAL, Method: STANDARD PLATE active; positive | Test System: AMES SALMONELLA TYPHIMURIUM, Strain/Indicator: YG7100, Metabolic Activation: NONE, Method: PREINCUBATION active; positive | Test System: AMES SALMONELLA TYPHIMURIUM, Strain/Indicator: YG7104, Metabolic Activation: NONE, Method: PREINCUBATION active; positive | Test System: AMES SALMONELLA TYPHIMURIUM, Strain/Indicator: YG7108, Metabolic Activation: NONE, Method: PREINCUBATION active; positive | Test System: AMES SALMONELLA TYPHIMURIUM, Strain/Indicator: YG7112, Metabolic Activation: NONE, Method: PREINCUBATION active; positive | Test System: AMES SALMONELLA TYPHIMURIUM, Strain/Indicator: YG7113, Metabolic Activation: NONE, Method: PREINCUBATION active; positive | Test System: AMES SALMONELLA TYPHIMURIUM, Strain/Indicator: YG7119, Metabolic Activation: NONE, Method: PREINCUBATION active; positive | Test System: CHINESE HAMSTER OVARY, Strain/Indicator: CHO-K1-BH4 (HGPRT), Metabolic Activation: NONE, Method: SUSPENSION/PLATE active; positive | Test System: CHINESE HAMSTER V-79, Strain/Indicator: V-79/6-THIOGUANINE, Metabolic Activation: NONE, Method: FLASK ASSAY active; positive | Test System: CHINESE HAMSTER V-79, Strain/Indicator: V-79/6-THIOGUANINE, Metabolic Activation: NONE, Method: STANDARD PLATE active; positive | Test System: CHINESE HAMSTER V-79, Strain/Indicator: V-79/8-AZAGUANINE, Metabolic Activation: NONE, Method: STANDARD PLATE active; positive | Test System: CHINESE HAMSTER V-79, Strain/Indicator: V-79/OUABAIN, Metabolic Activation: NONE active; positive | Test System: CHO/HGPRT, Strain/Indicator: CHO-K1-BH4, Metabolic Activation: NONE active; positive | Test System: CHO/HGPRT, Strain/Indicator: CHO-K1-BH4, Metabolic Activation: NONE, Method: STANDARD PLATE active; positive | Test System: E. COLI, Strain/Indicator: H/R30R, Metabolic Activation: NONE active; positive | Test System: E. COLI, Strain/Indicator: H/R30R, Metabolic Activation: NONE, Method: PREINCUBATION active; positive | Test System: E. COLI, Strain/Indicator: HS30R UVRA, Metabolic Activation: NONE, Method: PREINCUBATION active; positive | Test System: E. COLI, Strain/Indicator: HS30R, Metabolic Activation: NONE active; positive | Test System: E. COLI, Strain/Indicator: NG30 RECA, Metabolic Activation: NONE, Method: PREINCUBATION active; positive | Test System: E. COLI, Strain/Indicator: O16 POLA, Metabolic Activation: NONE, Method: PREINCUBATION active; positive | Test System: E. COLI, Strain/Indicator: WP2, Metabolic Activation: NONE, Method: FLUCTUATION active; positive | Test System: E. COLI, Strain/Indicator: WP2, Metabolic Activation: NONE, Method: STANDARD PLATE active; positive | Test System: E. COLI, Strain/Indicator: WP2 UVRA, Metabolic Activation: NONE, Method: FLUCTUATION active; positive | Test System: E. COLI, Strain/Indicator: WP2 UVRA, Metabolic Activation: NONE, Method: STANDARD PLATE active; positive | Test System: LacZ transgenic mouse (Muta Mouse), Strain/Indicator: LacZ Mutant frequency, Method: Liver and kidney harvested 37 days after last dose active; positive in kidney. no increase in mutation frequency in liver. | Test System: UDS HUMAN CELLS, Strain/Indicator: THY INCORP (NON-S-PHASE), Metabolic Activation: NONE, Method: LIQUID SCINTILLATION COUNTING active; positive | Test System: UDS HUMAN FIBROBLASTS, Strain/Indicator: THY INCORP (NON-S-PHASE), Metabolic Activation: NONE, Method: AUTORADIOGRAPHY active; positive | Test System: UDS MOUSE SPERMATOGONIAL AND POSTSPERMATOGONIAL CELLS IN VIVO, Strain/Indicator: THYMIDINE INCORPORATION, Metabolic Activation: NONE, Method: AUTORADIOGRAPHY active; positive | Test System: UDS RODENT CELLS, Strain/Indicator: THY INCORP (NON-S-PHASE), Metabolic Activation: NONE, Method: LIQUID SCINTILLATION COUNTING active; positive
